Converted amounts (≈) assume the structure as drawn.
How the values were obtained:
[1] = Lipophilicity, log P of the compound; type: physicochemical; conditions: octanol/water
[2] = Aqueous solubility of the compound in water after 2 days by HPLC analysis; type: physicochemical

logP [1] | solubility at 48 h [2] [mg/mL] | Compound
0.93 | > 100 | C[C@@H]1O[C@@H](O[C@H]2[C@H](Oc3cc(O)c4c(=O)c(Br)c(-c5ccc(O)cc5)oc4c3)O[C@H](CO)[C@@H](O)[C@@H]2O)[C@H](O)[C@H](O)[C@H]1O
1.17 | 13.8 (≈ 20.6 mM) | COc1ccc(-c2oc3cc(O[C@@H]4O[C@H](CO[C@@H]5O[C@@H](C)[C@H](O)[C@@H](O)[C@H]5O)[C@@H](O)[C@H](O)[C@H]4O)cc(O)c3c(=O)c2Br)cc1
0.06 | 0.0056 (≈ 0.00897 mM) | COc1ccc(-c2oc3cc(O[C@@H]4O[C@H](CO[C@@H]5O[C@@H](C)[C@H](O)[C@@H](O)[C@H]5O)[C@@H](O)[C@H](O)[C@H]4O)cc(O)c3c(=O)c2O)cc1O
0.44 | 231 (≈ 359 mM) | COc1ccc(-c2oc3cc(O[C@@H]4O[C@H](CO[C@@H]5O[C@@H](C)[C@H](O)[C@@H](O)[C@H]5O)[C@@H](O)[C@H](O)[C@H]4O)cc(O)c3c(=O)c2Cl)cc1O
0.61 | 214 (≈ 311 mM) | COc1ccc(-c2oc3cc(O[C@@H]4O[C@H](CO[C@@H]5O[C@@H](C)[C@H](O)[C@@H](O)[C@H]5O)[C@@H](O)[C@H](O)[C@H]4O)cc(O)c3c(=O)c2Br)cc1O
0.84 | 0.0046 (≈ 0.00776 mM) | COc1ccc(-c2cc(=O)c3c(O)cc(O[C@@H]4O[C@H](CO[C@@H]5O[C@@H](C)[C@H](O)[C@@H](O)[C@H]5O)[C@@H](O)[C@H](O)[C@H]4O)cc3o2)cc1 [ACACIIN]
0.71 | 0.114 (≈ 0.197 mM) | C[C@@H]1O[C@@H](O[C@H]2[C@H](Oc3cc(O)c4c(=O)cc(-c5ccc(O)cc5)oc4c3)O[C@H](CO)[C@@H](O)[C@@H]2O)[C@H](O)[C@H](O)[C@H]1O [RHOIFOLIN]
